The record followed here is patent US11834460B2, “Imide-based modulators of proteolysis and associated methods of use” (YALE UNIVERSITY, priority 2018, dated 2023).

One test deals with CRBN (Homo sapiens, UniProt Q96SW2). Put plainly: Surface plasmon resonance with immobilized His-tagged cereblon. The settings on record: SPR; average of at least 2 experiments; N.B - no binding observed. As to the method:
With unprecedented access to novel analogues of ImiDs, the structure-activity relationships with respect to Cereblon binding and the degradation of Aiolos (IKZF3) and CK1αwe were explored. To assess binding of ImiD analogues to Cereblon directly, an SPR assay with His-tagged Cereblon immobilized was employed. Dose-response curves were measured for each analogue and Kd values calculated.
Surface Plasmon Resonance
The surface plasmon resonance (SPR) experiments were conducted on a S200 Biacore (GE Healthcare). His-tagged cereblon protein was immobilized on a carboxymethylated dextran surface with nitriloacetic acid (NTA), taking advantage of NTA/Ni2+ chelation. The prepared surface equilibrated overnight in running buffer (10 mM HEPES buffer @ pH 7.4, 150 mM NaCl, 0.4 mg/mL BSA, 0.005% P20, 2% DMSO).
All compounds were prepared in 100% DMSO stock plates with a top concentration of 5 mM in a 3× serial dilution. Compounds were transferred from the stock plate to the assay plate and diluted into running buffer containing no DMSO.
Data analysis was performed in S200 Bia-evaluation software (GE Healthcare). Blanks were subtracted and data was corrected for DMSO using a standard DMSO curve.
(SPR reads the build-up and loss of mass on a sensor chip optically.)

Test [1] deals with BL cell lines (NAMALWA, Ramos, CA-46, Daudi). Put plainly: Proliferation assay (CellTiter-Glo) in BL cell lines. Format: cell-based. As to the method: To assess the effect of the inhibitors on proliferation, cells (50,000/100 μl) were seeded in 96-well tissue culture plates followed by addition of compound at the indicated concentration. After 72 hours, 100 μL per well of reconstituted CellTiter-Glo (CTG) reagent (#G7572 from Promega) was added and read on Cytation 3 imaging reader from BioTek. Relative cell growth was determined by comparing assay readings of treated cells with control DMSO treated cells.
Specifically, NAMALWA, Ramos, CA-46, and Daudi cell lines were seeded at 50,000 cells/100 μl in 96-well plates. […] Following treatment, the relative proliferation of the samples was determined by CTG assay 72 hours following treatment.
Cells were re-seeded in fresh medium and incubated without any compound for 0 hr, 24.0 hr, and 48.0 hr. In a parallel control experiment, cells were treated in the same manner, except DMSO was used in place of inhibitor. Following treatment, the relative proliferation of the samples was determined by CTG assay.
In a parallel control experiment, cells were treated in the same manner, except DMSO was used in place of inhibitor. Following treatment, the relative proliferation of the samples was determined by CTG assay.
In a parallel experiment, cells were treated in the same manner, except DMSO was used in place of pomalidomide.
A general note: In ATP-based viability assays light output follows the ATP content of the culture.

Another test has as its system caspase 3/7. Put plainly: Caspase 3/7-Glow assay in BL cell lines. The settings on record: 24 hours, A825 0.1 μM, JQ1 1.0 μM, OTX015 1.0 μM. Format: cell-based.
The subject of another test is c-Myc. Put plainly: Western blot analysis of c-Myc in BL cell lines. The following applies: for c-Myc protein level (immunoblot): overnight. Format: cell-based. As for the experimental part:
(§1) Cultured cells were collected in lysis buffer containing 40 mM HEPES (pH 7.4), 140 mM NaCl, 2.5 mM EDTA, 1% NP-40, 0.1% SDS and protease inhibitor cocktail. After 10 minutes of centrifugation (14000 rpm), supernatant was collected for protein concentration determination by BCA method and subjected for immunoblotting by standard protocol. Western blot results were visualized using Bio-Rad Clarity ECL Western Blotting Substrate on Bio-Rad ChemiDoc™ MP imaging system.
A separate set of cells were treated in the same manner, except that DMSO was used in place of the inhibitor. Following treatment, cell lysates were collected and analyzed by immunoblot for c-Myc and Actin.
Cells were re-seeded and incubated without inhibitor for 0 hr, 0.5 hr, 1.0 hr, 2.0 hr, 3.0 hr, 4.0 hr, and 6.0 hr. Cell lysates were then collected at the various time points and analyzed by immunoblot for c-Myc and Actin. In a parallel control experiment, NAMALWA cells were treated in the same manner, except DMSO was used in place of JQ1.
After treatment, the cells were either lysed (to evaluate the suppression of c-Myc by the inhibitors) or washed to remove the inhibitor, re-seeded, and incubated without inhibitor for 4.0 hours (to evaluate the reversibility of c-Myc suppression). Cell lysates were collected and analyzed by immunoblot for c-Myc and Actin.
Following treatment, cell lysates were collected and analyzed by immunoblot for BRD4, c-Myc and Actin.
(§2) Cells were re-seeded in fresh medium and incubated without any compound for 0 hr, 2.0 hr, 4.0 hr, 6.0 hr, and 24.0 hr. In a parallel control experiment, cells were treated in the same manner, except DMSO was used in place of inhibitor. Lysates were collected and analyzed by immunoblot for BRD4, c-Myc, and Actin.
On the technique in general: Immunoblotting shows a protein as a band on a membrane.

The next test concerns SLC19A1. Nature of the test: RT-QPCR of SLC19A1 gene expression in NAMALWA cells. The following applies: A825 0.1 μM 24 h, washout, 24 hours post-treatment. The class given is cell-based. As for the experimental part: RNA extraction was performed with Aurum™ Total RNA Mini Kit (#732-6820) from Bio-Rad. First-strand cDNA from total RNA was synthesized with High-Capacity cDNA Reverse Transcription Kit (#4368813) from Life Technologies according to manufacturer's instruction. Quantitative PCR was performed using Bio-rad SsoAdvanced™ Universal SYBR® Green Supermix (#172-5271). The following primers were used: […]
Cells were re-seeded in fresh medium and incubated without any inhibitor for 0 hr, 6.0 hr, and 24.0 hr. In a parallel control experiment, cells were treated in the same manner, except DMSO was used in place of inhibitor. At each time point, RNA was extracted from the lysates, reverse-transcribed into cDNA, and quantified by QPCR with SLC19A1 specific primers. GAPDH was also quantified by QPCR as an internal control.

The test system of another test is PARP. Put plainly: PARP cleavage immunoblot in BL cells. The class given is cell-based. The following applies: 48 hours; A825 0.1 uM, JQ1 and OTX15 up to 10.0 μM; Ramos cells. As to the method: as §1
Lysates were collected and analyzed by immunoblot for PARP cleavage with actin as loading control.

For another test, the target named is T1, BRD4 (Homo sapiens, UniProt O60885).
T1 construct: endogenous in cells; host or cells: NAMALWA, Ramos, CA-46, DAUDI
Nature of the test: Western blot analysis of BRD4 in BL cell lines. Format: cell-based. The following applies: pomalidomide 10 μM alone; overnight; NAMALWA and Ramos cells. As for the experimental part:
as §1
A separate set of cells were treated in the same manner, except that DMSO was used in place of the inhibitor. […] Following treatment, cell lysates were collected and analyzed by immunoblot for BRD4 and Actin.
Specifically, NAMALWA and Ramos cells were treated with 300 nM of each inhibitor for 0 hr, 0.5 hr, 1.0 hr, 2.0 hr, 4.0 hr, 7.0 hr, 24 hr, and 48.0 hr. Following treatment, cell lysates were collected and analyzed by immunoblot for BRD4 and Actin.
(§3) Following treatment, cell lysates were collected and analyzed by immunoblot for BRD4 and Actin.
as §3, §3, §3, §2

Setting [2] is: 100 nM to 1000 nM, NAMALWA cells.

Some results are limits rather than exact numbers.

CRBN, sequence (Q96SW2 whole entry): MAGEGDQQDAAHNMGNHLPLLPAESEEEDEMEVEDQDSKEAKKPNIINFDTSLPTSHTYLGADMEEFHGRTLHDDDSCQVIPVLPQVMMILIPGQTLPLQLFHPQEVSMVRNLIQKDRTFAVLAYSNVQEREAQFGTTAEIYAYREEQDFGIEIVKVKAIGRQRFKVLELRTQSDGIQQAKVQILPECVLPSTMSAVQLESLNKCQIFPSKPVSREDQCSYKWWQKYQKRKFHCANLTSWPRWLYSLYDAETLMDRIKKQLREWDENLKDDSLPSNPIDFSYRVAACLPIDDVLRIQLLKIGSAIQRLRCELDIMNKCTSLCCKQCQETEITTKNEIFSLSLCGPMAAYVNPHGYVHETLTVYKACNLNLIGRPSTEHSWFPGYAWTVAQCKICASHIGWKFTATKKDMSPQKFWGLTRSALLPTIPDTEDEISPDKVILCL

Regarding `CC(C)(C)c1ccc2c(c1)C(=O)N(C1CCC(=O)NC1=O)C2=O` (centres unmarked) [Compound 11], the affinity on CRBN, expressed as Kd, was 221 ± 52 nM.
On the same count and under the same terms, in the case of `O=C1CCC(N2C(=O)c3cccc4cccc(c34)C2=O)C(=O)N1` (centres unmarked) [Compound 12] it was 111 ± 6 nM.
Take `O=C1CCC(N2C(=O)c3ccc([N+](=O)[O-])cc3C2=O)C(=O)N1` (centres unmarked) [Compound 16]: the Kd at CRBN was greater than 11000 nM.
For `Cc1sc2c(c1C)C(c1ccc(Cl)cc1)=N[C@@H](CC(=O)Nc1ccc(OCCOCCOCCOCCNc3cccc4c3C(=O)N(C3CCC(=O)NC3=O)C4=O)cc1)c1nnc(C)n1-2` (some centres unmarked) [Compound A825], in test [1] (72 hours, all BL cell lines tested), the suppression of proliferation result is “more pronounced suppression of proliferation compared to JQ1 or OTX15”. Also, the anti-proliferation effect entry in test [1] (A825 10 nM with 10.0 μM pomalidomide, 72 hours, all cell lines tested) was “prevented the anti-proliferation effect”. Besides, the “duration of proliferation suppression post-treatment” value in test [1] (A825 0.1 μM 24 h, washout, NAMALWA cells) is given as “more than 48 hours”. Besides, in the test on caspase 3/7, the “caspase 3/7 activity” value was “statistically significant increase in caspase activity”. Besides, the “c-Myc protein level after compound removal” value in the test on c-Myc (A825 0.1 μM 24 h, washout, 24 hours post-treatment, NAMALWA cells) is “well below the control sample”. Moreover, the “c-Myc downregulation (immunoblot)” value in the test with c-Myc (A825 100-1000 nM overnight, NAMALWA and Ramos cells) was “much more pronounced downregulation of c-Myc compared to JQ1 and OTX-15”. Also, the “SLC19A1 gene expression after compound removal” value in the test with SLC19A1 is “greatly reduced compared to the control sample”. Moreover, in the test on PARP, the “apoptosis by PARP cleavage” value is listed as “prominent PARP cleavage”.
Take `Cc1sc2c(c1C)C(c1ccc(Cl)cc1)=N[C@@H](CC(=O)OC(C)(C)C)c1nnc(C)n1-2` [JQ1]: the “c-Myc protein level (immunoblot)” value in the test on c-Myc (setting [2]) is recorded as “significant suppression”; in the test on c-Myc (up to 3000 nM, NAMALWA cells), “neither JQ1 nor OTX-15 was able to completely suppress c-Myc expression”. Further, in the test with c-Myc (1000 nM 24 h, washout, NAMALWA cells), the “time for c-Myc protein to return to control level after inhibitor removal” value is no more than 3.0 h. Besides, in the test with PARP, the “apoptosis by PARP cleavage” value is “significantly higher dose”.
For the compound `Cc1sc2c(c1C)C(c1ccc(Cl)cc1)=N[C@@H](CC(=O)Nc1ccc(O)cc1)c1nnc(C)n1-2` [OTX-15], the “c-Myc protein level (immunoblot)” value in the test with c-Myc (setting [2]) is recorded as “significant suppression”; with c-Myc (up to 3000 nM, NAMALWA cells) it was “neither JQ1 nor OTX-15 was able to completely suppress c-Myc expression”. For the same compound, in the test on PARP, the “apoptosis by PARP cleavage” value is listed as “significantly higher dose”.
For the compound `Nc1cccc2c1C(=O)N(C1CCC(=O)NC1=O)C2=O` (centres unmarked) [Pomalidomide, pomalidomide, reference compound], in test [1] (pomalidomide alone up to 10 μM, 72 hours), the “effect on BL cell proliferation” value is listed as “did not result in a significant effect on the proliferation”. Also, on BRD4, the “BRD4 protein level (immunoblot)” value is reported as “not affected”.

Broadly, the Kd is the constant that tells how readily two partners part at equilibrium.
